Test results from ChEMBL document CHEMBL1201862, “PubChem BioAssay data set” (2004).
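Test compounds were applied to cells in 96-well plates for 48 hours at 5 doses. GI50 = concentration required for 50% inhibition of growth.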 The source made the active and inactive calls. Cut-off read from the data, not from the text of the source: active = GI50 up to about 1.1 µM and inactive = higher.

Tests used:
Experiment in all cases: NCI anticancer screen, dose series, 48 h
OVCAR-8 = tested on: OVCAR-8
TK-10 = tested on: TK-10
SN12C = tested on: SN12C
UACC-257 = tested on: UACC-257
SNB-19 = tested on: SNB-19
HL-60 = tested on: HL-60
HOP-92 = tested on: HOP-92
MDA-MB-435 = tested on: MDA-MB-435
SF-539 = tested on: SF-539
NCI-H226 = tested on: NCI-H226
DU-145 = tested on: DU-145
HCT-116 = tested on: HCT-116
COLO 205 = tested on: COLO 205
RXF 393 = tested on: RXF 393
CAKI-1 = tested on: CAKI-1
SK-MEL-5 = tested on: SK-MEL-5
OVCAR-4 = tested on: OVCAR-4
HCT-15 = tested on: HCT-15
BT-549 = tested on: BT-549
OVCAR-5 = tested on: OVCAR-5
SW-620 = tested on: SW-620
SF-268 = tested on: SF-268
MDA-MB-231 = tested on: MDA-MB-231
786-0 = tested on: 786-0
ACHN = tested on: ACHN
A498 = tested on: A498
K562 = tested on: K562
HOP-62 = tested on: HOP-62
HCC 2998 = tested on: HCC 2998
LOX IMVI = tested on: LOX IMVI
KM12 = tested on: KM12
PC-3 = tested on: PC-3
UACC-62 = tested on: UACC-62
CCRF-CEM = tested on: CCRF-CEM
MOLT-4 = tested on: MOLT-4
OVCAR-3 = tested on: OVCAR-3
NCI-H460 = tested on: NCI-H460
Hs-578T = tested on: Hs-578T
NCI-H23 = tested on: NCI-H23
SR = tested on: SR
NCI/ADR-RES = tested on: NCI/ADR-RES
MDA-N = tested on: MDA-N
T47D = tested on: T47D
RPMI-8226 = tested on: RPMI-8226
NCI-H522 = tested on: NCI-H522
U-251 = tested on: U-251
MCF7 = tested on: MCF7
HT-29 = tested on: HT-29
SF-295 = tested on: SF-295
UO-31 = tested on: UO-31
EKVX = tested on: EKVX
IGROV-1 = tested on: IGROV-1
A549 = tested on: A549
M14 = tested on: M14
SK-MEL-28 = tested on: SK-MEL-28
SK-MEL-2 = tested on: SK-MEL-2
SK-OV-3 = tested on: SK-OV-3
Malme-3M = tested on: Malme-3M

## CCN(CC)C(=S)Oc1cc2oc(=O)cc(C)c2cc1Cl
OVCAR-8
  GI50: > 100 µM (inactive)
TK-10
  GI50: > 100 µM (inactive)
SN12C
  GI50: > 100 µM (inactive)
UACC-257
  GI50: > 100 µM (inactive)
SNB-19
  GI50: 66.5 µM (inactive)
HL-60
  GI50: > 100 µM (inactive)
HOP-92
  GI50: 56 µM (inactive)
MDA-MB-435
  GI50: > 100 µM (inactive)
SF-539
  GI50: > 100 µM (inactive)
NCI-H226
  GI50: > 100 µM (inactive)
DU-145
  GI50: > 100 µM (inactive)
HCT-116
  GI50: > 100 µM (inactive)
COLO 205
  GI50: > 100 µM (inactive)
RXF 393
  GI50: 25.5 µM (inactive)
CAKI-1
  GI50: > 100 µM (inactive)
SK-MEL-5
  GI50: > 100 µM (inactive)
OVCAR-4
  GI50: > 100 µM (inactive)
HCT-15
  GI50: > 100 µM
BT-549
  GI50: > 100 µM (inactive)
OVCAR-5
  GI50: > 100 µM (inactive)
SW-620
  GI50: > 100 µM (inactive)
SF-268
  GI50: 36.1 µM (inactive)
MDA-MB-231
  GI50: > 100 µM (inactive)
786-0
  GI50: > 100 µM (inactive)
ACHN
  GI50: > 100 µM (inactive)
A498
  GI50: > 100 µM (inactive)
K562
  GI50: > 100 µM (inactive)
HOP-62
  GI50: 54 µM (inactive)
HCC 2998
  GI50: 52.7 µM (inactive)
LOX IMVI
  GI50: 68.7 µM (inactive)
KM12
  GI50: > 100 µM (inactive)
PC-3
  GI50: > 100 µM (inactive)
UACC-62
  GI50: 26.9 µM (inactive)
CCRF-CEM
  GI50: > 100 µM (inactive)
MOLT-4
  GI50: > 100 µM (inactive)
OVCAR-3
  GI50: > 100 µM (inactive)
NCI-H460
  GI50: > 100 µM (inactive)
Hs-578T
  GI50: 57.7 µM (inactive)
NCI-H23
  GI50: > 100 µM (inactive)
SR
  GI50: > 100 µM (inactive)
NCI/ADR-RES
  GI50: > 100 µM (inactive)
MDA-N
  GI50: > 100 µM (inactive)
T47D
  GI50: 54 µM (inactive)
RPMI-8226
  GI50: > 100 µM (inactive)
NCI-H522
  GI50: 80.4 µM (inactive)
U-251
  GI50: 42.2 µM (inactive)
MCF7
  GI50: 23.9 µM (inactive)
HT-29
  GI50: > 100 µM (inactive)
SF-295
  GI50: 66.7 µM (inactive)
UO-31
  GI50: > 100 µM (inactive)
EKVX
  GI50: > 100 µM (inactive)
IGROV-1
  GI50: > 100 µM (inactive)
A549
  GI50: > 100 µM (inactive)
M14
  GI50: > 100 µM (inactive)
SK-MEL-28
  GI50: > 100 µM (inactive)
SK-MEL-2
  GI50: 8.51 µM (inactive)

## CC(=O)O[C@H]1CCC2[C@@H]3CCC4NC(=O)C(C#N)C[C@]4(C)C3CC[C@@]21C (stereo partly drawn)
OVCAR-8
  GI50: > 10 µM (inactive)
TK-10
  GI50: > 10 µM (inactive)
SN12C
  GI50: > 10 µM (inactive)
UACC-257
  GI50: > 10 µM (inactive)
SNB-19
  GI50: > 10 µM (inactive)
HL-60
  GI50: > 10 µM (inactive)
HOP-92
  GI50: > 10 µM (inactive)
MDA-MB-435
  GI50: > 10 µM (inactive)
SF-539
  GI50: > 10 µM (inactive)
NCI-H226
  GI50: > 10 µM (inactive)
DU-145
  GI50: > 10 µM (inactive)
HCT-116
  GI50: > 10 µM (inactive)
COLO 205
  GI50: > 10 µM (inactive)
RXF 393
  GI50: > 10 µM (inactive)
CAKI-1
  GI50: > 10 µM (inactive)
SK-MEL-5
  GI50: > 10 µM (inactive)
OVCAR-4
  GI50: > 10 µM (inactive)
HCT-15
  GI50: > 10 µM
BT-549
  GI50: > 10 µM (inactive)
OVCAR-5
  GI50: > 10 µM (inactive)
SW-620
  GI50: > 10 µM (inactive)
SF-268
  GI50: > 10 µM (inactive)
MDA-MB-231
  GI50: > 10 µM (inactive)
786-0
  GI50: > 10 µM (inactive)
ACHN
  GI50: > 10 µM (inactive)
A498
  GI50: > 10 µM (inactive)
K562
  GI50: > 10 µM (inactive)
HOP-62
  GI50: > 10 µM (inactive)
HCC 2998
  GI50: > 10 µM (inactive)
LOX IMVI
  GI50: > 10 µM (inactive)
KM12
  GI50: > 10 µM (inactive)
PC-3
  GI50: > 10 µM (inactive)
UACC-62
  GI50: > 10 µM (inactive)
SK-OV-3
  GI50: > 10 µM (inactive)
CCRF-CEM
  GI50: > 10 µM (inactive)
MOLT-4
  GI50: > 10 µM (inactive)
OVCAR-3
  GI50: > 10 µM (inactive)
NCI-H460
  GI50: > 10 µM (inactive)
Hs-578T
  GI50: 3.96 µM (inactive)
NCI-H23
  GI50: > 10 µM (inactive)
SR
  GI50: > 10 µM (inactive)
NCI/ADR-RES
  GI50: > 10 µM (inactive)
MDA-N
  GI50: > 10 µM (inactive)
T47D
  GI50: > 10 µM (inactive)
RPMI-8226
  GI50: > 10 µM (inactive)
U-251
  GI50: > 10 µM (inactive)
MCF7
  GI50: > 10 µM (inactive)
HT-29
  GI50: > 10 µM (inactive)
SF-295
  GI50: > 10 µM (inactive)
UO-31
  GI50: > 10 µM (inactive)
EKVX
  GI50: 8.17 µM (inactive)
IGROV-1
  GI50: > 10 µM (inactive)
A549
  GI50: > 10 µM (inactive)
M14
  GI50: > 10 µM (inactive)
SK-MEL-28
  GI50: > 10 µM (inactive)
SK-MEL-2
  GI50: > 10 µM (inactive)
Malme-3M
  GI50: > 10 µM (inactive)
